How the values were obtained:
GDP-loaded KRAS G12D = GDP-loaded KRAS G12D (Homo sapiens (Human), UniProt P01116, G12D); test: KRAS G12D (GDP) biochemical assay (TR-FRET probe displacement); format: binding; conditions: 2 hours
Method in brief: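 Compound pre-incubated 30 min with GDP-loaded KRAS G12D in 50 mM Hepes pH 7.4, 150 mM NaCl, 5 mM MgCl2, 0.005% Tween-20, then Eu-streptavidin and TR-FRET probe added. After 2 h at room temperature, TR-FRET ratio read; IC50 is 50% ratio decrease, sigmoidal fit.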

GP2D (KRAS G12D) cells = test: 2D cell viability assay (CellTiter-Glo); format: cell-based; conditions: GP2d, 96 h, 4 days
Method in brief: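 GP2D (KRAS G12D) cells, 1000/well in RPMI + 10% FBS, were plated onto compound (1:3 DMSO series) and grown 4 days at 37 °C, 5% CO2 in 2D. CellTiter-Glo luminescence was read; EC50 is the concentration giving 50% signal decrease, from sigmoidal fit.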

Sequence of GDP-loaded KRAS G12D (P01116-2 other isoform, or with tags, fused parts or gaps G12D): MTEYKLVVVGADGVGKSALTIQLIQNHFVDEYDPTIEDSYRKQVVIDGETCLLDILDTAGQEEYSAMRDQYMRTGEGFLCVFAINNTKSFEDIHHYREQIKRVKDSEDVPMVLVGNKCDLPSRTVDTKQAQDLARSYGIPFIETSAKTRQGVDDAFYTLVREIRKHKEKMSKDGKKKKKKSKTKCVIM

Row | Compound | IC50 (GDP-loaded KRAS G12D) [nM] | EC50 (GP2D (KRAS G12D) cells) [nM]
1 | C#Cc1c(F)ccc2cc(O)cc(-c3nc4c5c(nc(OCC6(CN7CCC(F)CC7)CC6)nc5c3F)N3C[C@H]5CC[C@H](N5)[C@H]3CO4)c12 [Example 32, 5-ethynyl-6-fluoro-4-((5aS,6S,9R)-1-fluoro-12-((1-((4-fluoropiperidin-1-yl)methyl)cyclopropyl)methoxy)-5a,6,7,8,9,10-hexahydro-5H-4-oxa-3,10a,11,13,14-pentaaza-6,9-methanonaphtho[1,8-ab]heptalen-2-yl)naphthalen-2-ol] | 0.2 | 2
2 | C#Cc1c(F)ccc2cccc(-c3nc4c5c(nc(OC[C@@]67CCCN6[C@H](COC(C(F)(F)F)(C(F)(F)F)C(F)(F)F)CC7)nc5c3F)N3C[C@H]5CC[C@H](N5)[C@@H]3[C@@H](C)C4)c12 [Example 83, (5S,5aS,6S,9R)-2-(8-ethynyl-7-fluoronaphthalen-1-yl)-1-fluoro-12-(((3S,7aS)-3-(((1,1,1,3,3,3-hexafluoro-2-(trifluoromethyl)propan-2-yl)oxy)methyl)tetrahydro-1H-pyrrolizin-7a(5H)-yl)methoxy)-5-methyl-4,5,5a,6,7,8,9,10-octahydro-3,10a,11,13,14-pentaaza-6,9-methanonaphtho[1,8-ab]heptalene] | 3.2 | 67.4
3 | C#Cc1c(F)ccc2cc(O)cc(-c3nc4c5c(nc(OCC6(CN7CCC(C(F)(F)F)CC7)CC6)nc5c3F)N3C[C@H]5CC[C@H](N5)[C@H]3CC4)c12 [Example 69, 5-ethynyl-6-fluoro-4-((5aR,6S,9R)-1-fluoro-12-((1-((4-(trifluoromethyl)piperidin-1-yl)methyl)cyclopropyl)methoxy)-4,5,5a,6,7,8,9,10-octahydro-3,10a,11,13,14-pentaaza-6,9-methanonaphtho[1,8-ab]heptalen-2-yl)naphthalen-2-ol] | 0.1 | 0.6
4 | C#Cc1c(F)ccc2cccc(-c3nc4c5c(nc(OC[C@@]67CCCN6[C@H](COc6cc(C(F)(F)F)ncn6)CC7)nc5c3F)N3C[C@H]5CC[C@H](N5)[C@H]3CCC4)c12 [Example 154, (6aR,7S,10R)-2-(8-ethynyl-7-fluoronanhthalen-1-yl)-1-fluoro-13-(((3S,7aS)-3-(((6-(trifluoromethyl)pyrimidin-4-yl)oxy)methyl)tetrahydro-1H-pyrrolizin-7a(5H)-yl)methoxy)-5,6,6a,7,8,9,10,11-octahydro-4H-3,11a,12,14,15-pentaaza-7,10-methanocyclohepta[4,5]cycloocta[1,2,3-de]naphthalene] | 0.1 | 1
5 | C#Cc1c(F)ccc2cccc(-c3nc4c5c(nc(OC[C@@]67CCCN6[C@H](COC(C(F)(F)F)C(F)(F)F)CC7)nc5c3F)N3C[C@H]5CC[C@H](N5)[C@H]3CC4)c12 [Example 150, (5aR,6S,9R)-2-(8-ethynyl-7-fluoronaphthalen-1-yl)-1-fluoro-12-(((3S,7aS)-3-(((1,1,1,3,3,3-hexafluoropropan-2-yl)oxy)methyl)tetrahydro-1H-pyrrolizin-7a(5H)-yl)methoxy)-4,5,5a,6,7,8,9,10-octahydro-3,10a,11,13,14-pentaaza-6,9-methanonaphtho[1,8-ab]heptalene] | 0.2 | 47.2
6 | C#Cc1c(F)ccc2cc(O)cc(-c3nc4c5c(nc(OCC6(CN7CCC[C@@H](F)C7)CC6)nc5c3F)N3C[C@H]5CC[C@H](N5)[C@H]3CC4)c12 [Example 67] | 0.08 | 1
7 | C#Cc1c(F)ccc2cccc(-c3nc4c5c(nc(OCC6(CN7CCC8(CC7)CC8)CC6)nc5c3F)N3C[C@H]5CC[C@H](N5)[C@H]3CCC4)c12 [Example 178, (6aR,7S,10R)-13-((1-((6-azaspiro[2.5]octan-6-yl)methyl)cyclopropyl)methoxy)-2-(8-ethynyl-7-fluoronaphthalen-1-yl)-1-fluoro-5,6,6a,7,8,9,10,11-octahydro-4H-3,11a,12,14,15-pentaaza-7,10-methanocyclohepta[4,5]cycloocta[1,2,3-de]naphthalene] | 0.7 | 37.4
8 | C#Cc1c(F)ccc2cccc(-c3nc4c5c(nc(OC[C@@]67CCCN6[C@H](COc6cccc(S(F)(F)(F)(F)F)c6)CC7)nc5c3F)N3C[C@H]5CC[C@H](N5)[C@H]3CCC4)c12 [Example 118, (6aR,7S,10R)-2-(8-ethynyl-7-fluoronaphthalen-1-yl)-1-fluoro-13-(((3S,7aS)-3-((3-(pentafluoro-λ^6-sulfaneyl)phenoxy)methyl)tetrahydro-1H-pyrrolizin-7a(5H)-yl)methoxy)-5,6,6a,7,8,9,10,11-octahydro-4H-3,11a,12,14,15-pentaaza-7,10-methanocyclohepta[4,5]cycloocta[1,2,3-de]naphthalene] | 0.4 | 72.7
9 | C#Cc1c(F)ccc2cc(O)cc(-c3nc4c5c(nc(OC[C@@]67CCCN6C[C@H](F)C7)nc5c3F)N3C[C@H]5CC[C@H](N5)[C@@H]3CCO4)c12 [Example 77, 5-ethynyl-6-fluoro-4-((6aS,7S,10R)-1-fluoro-13-(((2R,7aS)-2-fluorotetrahydro-1H-pyrrolizin-7a(5H)-yl)methoxy)-5,6,6a,7,8,9,10,11-octahydro-4-oxa-3,11a,12,14,15-pentaaza-7,10-methanocyclohepta[4,5]cycloocta[1,2,3-de]naphthalen-2-yl)naphthalen-2-ol] | 6 | 83
10 | C#Cc1c(F)ccc2cc(O)cc(-c3nc4c5c(nc(OCC6(CN7CCC[C@@H](F)C7)CC6)nc5c3F)N3C[C@H]5CC[C@H](N5)[C@H]3CO4)c12 [Example 34, 5-ethynyl-6-fluoro-4-((5aS,6S,9R)-1-fluoro-12-((1-(((R)-3-fluoropiperidin-1-yl)methyl)cyclopropyl)methoxy)-5a,6,7,8,9,10-hexahydro-5H-4-oxa-3,10a,11,13,14-pentaaza-6,9-methanonaphtho[1,8-ab]heptalen-2-yl)naphthalen-2-ol] | 0.2 | 2
11 | C#Cc1c(F)ccc2cccc(-c3nc4c5c(nc(OCC6(CN7CCC(OC(F)(F)F)CC7)CC6)nc5c3F)N3C[C@H]5CC[C@H](N5)[C@H]3CCC4)c12 [Example 127, (6aR,7S,10R)-2-(8-ethynyl-7-fluoronaphthalen-1-yl)-1-fluoro-13-((1-((4-(trifluoromethoxy)piperidin-1-yl)methyl)cyclopropyl)methoxy)-5,6,6a,7,8,9,10,11-octahydro-4H-3,11a,12,14,15-pentaaza-7,10-methanocyclohepta[4,5]cycloocta[1,2,3-de]naphthalene] | 1.6 | 88.9
12 | C#Cc1c(F)ccc2cccc(-c3nc4c5c(nc(OCC6(CN7CC[C@H](OC(F)(F)F)C7)CC6)nc5c3F)N3C[C@H]5CC[C@H](N5)[C@@H]3[C@@H](C)C4)c12 [Example 89, (5S,5aS,6S,9R)-2-(8-ethynyl-7-fluoronaphthalen-1-yl)-1-fluoro-5-methyl-12-((1-(((S)-3-(trifluoromethoxy)pyrrolidin-1-yl)methyl)cyclopropyl)methoxy)-4,5,5a,6,7,8,9,10-octahydro-3,10a,11,13,14-pentaaza-6,9-methanonaphtho[1,8-ab]heptalene] | 50.9 | 379
13 | C#Cc1c(F)ccc2cccc(-c3nc4c5c(nc(OC[C@@]67CCCN6C[C@@H](OC(C(F)(F)F)(C(F)(F)F)C(F)(F)F)C7)nc5c3F)N3C[C@H]5CC[C@H](N5)[C@H]3CC4)c12 (stereo in doubt) [Example 135, (5aR,6S,9R)-2-(8-ethynyl-7-fluoronaphthalen-1-yl)-1-fluoro-12-((cis-2-((1,1,1,3,3,3-hexafluoro-2-(trifluoromethyl)propan-2-yl)oxy)tetrahydro-1H-pyrrolizin-7a(5H)-yl)methoxy)-4,5,5a,6,7,8,9,10-octahydro-3,10a,11,13,14-pentaaza-6,9-methanonaphtho[1,8-ab]heptalene] | 88.1 | 100
14 | C#Cc1c(F)ccc2cccc(-c3nc4c5c(nc(OCC6(CN7CCC8(CC7)CC8(F)F)CC6)nc5c3F)N3C[C@H]5CC[C@H](N5)[C@@H]3[C@@H](C)C4)c12 [Example 136, (5S,5aS,6S,9R)-12-((1-((1,1-difluoro-6-azaspiro[2.5]octan-6-yl)methyl)cyclopropyl)methoxy)-2-(8-ethynyl-7-fluoronaphthalen-1-yl)-1-fluoro-5-methyl-4,5,5a,6,7,8,9,10-octahydro-3,10a,11,13,14-pentaaza-6,9-methanonaphtho[1,8-ab]heptalene] | 17.1 | 100
15 | C#Cc1c(F)ccc2cccc(-c3nc4c5c(nc(OC[C@@]67CCCN6[C@H](COc6cnnc(C(F)(F)F)c6)CC7)nc5c3F)N3C[C@H]5CC[C@H](N5)[C@H]3CCC4)c12 [Example 199, (6aR,7S,10R)-2-(8-ethynyl-7-fluoronaphthalen-1-yl)-1-fluoro-13-(((3S,7aS)-3-(((6-(trifluoromethyl)pyridazin-4-yl)oxy)methyl)tetrahydro-1H-pyrrolizin-7a(5H)-yl)methoxy)-5,6,6a,7,8,9,10,11-octahydro-4H-3,11a,12,14,15-pentaaza-7,10-methanocyclohepta[4,5]cycloocta[1,2,3-de]naphthalene] | 0.07 | 3.2
16 | C#Cc1c(F)ccc2cccc(-c3nc4c5c(nc(OC[C@@]67CCCN6C[C@H](F)C7)nc5c3F)N3C[C@H]5CC[C@H](N5)[C@H]3C[C@H]4O)c12 [Example 186, (4R,5aR,6S,9R)-2-(8-ethynyl-7-fluoronaphthalen-1-yl)-1-fluoro-12-(((2R,7aS)-2-fluorotetrahydro-1H-pyrrolizin-7a(5H)-yl)methoxy)-4,5,5a,6,7,8,9,10-octahydro-3,10a,11,13,14-pentaaza-6,9-methanonaphtho[1,8-ab]heptalen-4-ol] | 0.2 | 13
